In PMC8708875 (Pharmaceutics, 2021):

How the values were obtained:
[1] = test system: Akt phosphorylation (pAkt, S473); test: Akt phosphorylation by Western blotting in differentiated C2C12 cells; assay type: cell-based, mouse; details: peptides 100 µM, insulin 100 nM, Western blot, three independent experiments
Experimental: C2C12 cells were used as a well-described model of skeletal muscle to evaluate the effect of peptides in gene expression, cell signaling, and glucose uptake. These cells were kindly provided by Prof. Patricia Brum, School of Physical Education and Prof. Anselmo Moriscot, Biomedical Science Institute, University of São Paulo, São Paulo, Brazil. C2C12 cells were cultured and maintained in high glucose Dulbecco’s modified Eagle’s medium (DMEM; Thermo Fisher Scientific, São Paulo, SP, Brazil) supplemented with 10% fetal bovine serum (FBS), 100 U/mL penicillin, and […] streptomycin in a humidified atmosphere of 5% CO2 at 37 °C. The cells were used in low pass (between passages 2 and 4) for all experiments to maintain the potential for differentiation of cultures. […]
Western blotting experiments were performed to evaluate the expression levels of specific proteins. […] Western blot bands were visualized with Super-Signal West Pico Chemiluminescent substrate (Thermo Scientific) using the ChemiDoc™ MP Imaging System (BioRad, Hercules, CA, USA), and quantified using ImageJ 1.49 software. All results are expressed as the means ± standard error of the mean (SEM). […] Data were statistically analyzed with GraphPad Prism software (GraphPad Software Inc, San Diego, CA, USA). […]

[2] = test system: differentiated C2C12 myotubes; test: qPCR gene expression in differentiated C2C12 myotubes; assay type: cell-based, mouse; details: Ric peptides 100 µM, insulin positive control, qPCR normalised to GAPDH, control = 1, mean ± SEM

Substance | phosphorylation of Akt (pAkt over total Akt) [1] | relative expression of Myosin, light chain 1 (MYL1) [2]
Insulin | increased | 6.18 ± 1.07
LASVSTVLTSKYR [Ric4, intracellular peptide derived from hemoglobin alpha subunit, last 13 C-terminal amino acids] | activated | 3.58 ± 1.07
